Data: US7772227B2, “Tricyclic 1-[(indol-3-yl)carbonyl]piperazine derivatives as cannabinoid CB1 receptor agonists” (N.V. Organon, priority 2003, dated 2010)
Structures can show the parent of a compound that is named as a salt. Where two headings read alike, the source gives them in different places.

Tests used:
[1] = target: T1, human CB1 receptor (Homo sapiens, UniProt P21554); experiment: Efficacy and potency at the human CB1 receptor expressed in CHO cells (luciferase reporter gene); assay type: cell-based; conditions: 5 h incubation at 37° C.
T1 construct: expressed in transfected cells; host or cells: Chinese Hamster Ovary (CHO) cells
T1 sequence (P21554 whole entry): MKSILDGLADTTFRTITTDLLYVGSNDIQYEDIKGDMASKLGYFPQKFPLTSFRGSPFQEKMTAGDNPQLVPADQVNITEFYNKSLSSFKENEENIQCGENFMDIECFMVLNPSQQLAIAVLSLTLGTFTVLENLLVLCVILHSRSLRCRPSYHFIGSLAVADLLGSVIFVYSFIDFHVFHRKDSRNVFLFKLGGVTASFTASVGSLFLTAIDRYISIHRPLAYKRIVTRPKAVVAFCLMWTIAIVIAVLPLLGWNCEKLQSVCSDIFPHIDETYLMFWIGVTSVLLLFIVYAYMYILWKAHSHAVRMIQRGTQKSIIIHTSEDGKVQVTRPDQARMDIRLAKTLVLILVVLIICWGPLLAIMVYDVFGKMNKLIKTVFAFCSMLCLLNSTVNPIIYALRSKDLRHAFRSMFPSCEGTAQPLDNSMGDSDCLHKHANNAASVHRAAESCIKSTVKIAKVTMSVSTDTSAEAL
Procedure: Methods to determine receptor binding as well as in vitro biological activity of cannabinoid receptor modulators are well known in the art. In general, expressed receptor is contacted with the compound to be tested and binding or stimulation or inhibition of a functional response is measured.
Chinese Hamster Ovary (CHO) cells expressing the human CB1 receptor and a luciferase reporter gene were suspended in phenol red/serum free DMEM/F-12 nut mix containing penicillin/streptomycin (50 U/50 μg/ml) and fungizone (1 μg/ml) and seeded into 96 well plates at a density of 3×10^4 cells per well (100 μl final volume). Cells were incubated overnight (approx. 18 h at 37° C., 5% CO2/95% air) prior to assay.
The test compound (10 mM solution in dimethylsulfoxide) was diluted in F12 Nut Mix to give a range of stock solutions from 0.11 mM to 0.11 nM. The stock solutions (10 μl) were added directly to the relevant wells. The plates were incubated at 37° C. for 5 h to allow agonist-induced expression of the luciferase enzyme. Under subdued light, LucLite substrate (Packard; reconstituted as per manufacturer's instructions; 100 μl) was added to each well. Plates were covered with Top Seal and then incubated at room temperature for 5 minutes before counting on the Packard TopCount (single photon counting, 0.01 minute count time, 5 minute count delay).
A “best-fit” curve was fitted by a minimum sum of squares method to the plot of counts per second (CPS) against compound concentration (M) to obtain an EC50 value.

[2] = system: mice; experiment: Tail flick latency in mice; assay type: in vivo; conditions: Mus musculus, iv, administered intravenously, ED50 calculated at Tmax, read-out: ED50 (increase of tail flick latency)
Procedure: Mice were trained to sit still in a tail flick apparatus (Ugo Basile, Italy) whilst tail flick latency was measured. The tail was exposed to a focused beam of radiant heat at a point approximately 2.5 cm from the tip. Tail flick latency was defined as the interval between the appliance of the thermal stimulus and withdrawal of the tail. A 12 second cut-off was employed to prevent tissue damage. Four groups of eight mice were treated with vehicle or one of three doses of the test compound, administered intravenously (vehicle: saline 9 g/l; injection volume 10 ml/kg). Tail flick latency was measured before administration of the test compound and at regular intervals (typically 20, 40 and 60 minutes) after compound administration. The ED50 was calculated at Tmax.

[3] = CHO cells expressing human CB1 receptor and luciferase reporter gene, read-out: pEC50 (converted)
[4] = CHO cells expressing human CB1 receptor and luciferase reporter gene

Row | SMILES | EC50 [1, 3] | ED50 [2] | pEC50 [1, 4] | other results
1 | CCN1CCN(C(=O)c2cn3c4c(cccc24)CCC3C2CCCCC2)CC1 (single isomer, unassigned; (-)) [Example 15, (−)-(4-Cyclohexyl-5,6-dihydro-1-(4-ethylpiperazin-1-ylcarbonyl)-4H-pyrrolo[3,2,1-ij]quinoline hydrochloride salt] | 31.6 nM | < 5 µmol/kg |  | 
2 | C[C@H]1CN(C(=O)c2cn3c4c(cccc24)OC[C@H]3C2CCCCC2)CCN1C.Cl [Example 4, (R)-3-Cyclohexyl-2,3-dihydro-6-[(S)-3,4-dimethylpiperazin-1-ylcarbonyl]pyrrolo[1,2,3-de]-1,4-benzoxazine hydrochloride salt] |  | < 5 µmol/kg | 7.8 | 
3 | CCN1CCN(C(=O)c2cn3c4c(cccc24)CCC3C2CCCC2)CC1 (single isomer, unassigned; (-)) [Example 12B, (−)-4-Cylclopentyl-5,6-dihydro-1-(4-ethylpiperazin-1-ylcarbonyl)-4H-pyrrolo[3,2,1-ij]quinoline hydrochloride salt] | 39.8 nM |  |  | 
4 | CN1CCN(C(=O)c2cn3c4c(cccc24)OC[C@H]3C2CCCCC2)CC1.Cl [Example 5C, (R)-3-Cyclohexyl-2,3-dihydro-6-[4-methylpirerazin-1-ylcarbonyl]pyrrolo[1,2,3-de]-1,4-benzoxazine hydrochloride salt] |  |  | 7.0 | 
5 | CN1CCN(C(=O)c2cn3c4c(cccc24)CCC3C2CCCCC2)CC1 (single isomer, unassigned; (-)) [Example 16, (−)-(4-Cyclohexyl-5,6-dihydro-1-(4-methylpiperazin-1-ylcarbonyl)-4H-pyrrolo[3,2,1-ij]-quinoline hydrochloride salt] | 25.1 nM |  |  | 
6 | CCN1[C@H](C)CN(C(=O)c2cn3c4c(cccc24)OC[C@H]3C2CCCCC2)C[C@@H]1C.Cl [Example 8, (R)-3-Cyclohexyl-2,3-dihydro-6-[(cis)-3,5-dimethyl-4-ethylpiperazin-1-ylcarbonyl]-pyrrolo[1,2,3-de]-1,4-benzoxazine hydrochloride salt] |  |  | 8.4 | 
7 | CCN1CCN(C(=O)c2cn3c4c(cccc24)CCC3C2CCCCC2)CC1 (single isomer, unassigned; (+)) [Example 13, (+)-4-Cyclohexyl-5,6-dihydro-1-(4-ethylpiperazin-1-ylcarbonyl)-4H-pyrrolo[3,2,1-ij]-quinoline hydrochloride salt] | 50.1 nM |  |  | 
8 | O=C(c1cn2c3c(cccc13)OC[C@H]2C1CCCCC1)N1CCN2CCCC[C@H]2C1 [Example 2, (R)-3-Cyclohexyl-2,3-dihydro-6-[(S)-octahydro-2H-pyrido[1,2-a]pyrazin-2-ylcarbonyl]-pyrrolo[1,2,3-de]-1,4-benzoxazine hydrochloride salt] |  | < 5 µmol/kg |  | EC50 ([1]; pEC50, CHO cells expressing human CB1 receptor and luciferase reporter gene): 10 nM
9 | CCN1CCN(C(=O)c2cn3c4c(cccc24)OC[C@H]3C2CCCCC2)CC1.Cl [Example 1, (R)-3-Cyclohexyl-2,3-dihydro-6-(4-ethylpiperazin-1-ylcarbonyl)pyrrolo[1,2,3-de]-1,4-benzoxazine hydrochloride salt] |  |  | 7.5 | 
10 | COCCN1[C@H](C)CN(C(=O)c2cn3c4c(cccc24)OC[C@H]3C2CCCCC2)C[C@@H]1C.Cl [Example 10, (R)-3-Cyclohexyl-2,3-dihydro-6-[(cis)-3,5-dimethyl-4-(2-methoxyethyl)piperazin-1-yl-carbonyl]pyrrolo[1,2,3-de]-1,4-benzoxazine hydrochloride salt] |  |  | 8.3 | 
11 | CN1CCN(C(=O)c2cn3c4c(cccc24)CCC3C2CCCCC2)CC1 (single isomer, unassigned; (+)) [Example 14, (+)-(4-Cyclohexyl-5,6-dihydro-1-(4-methylpiperazin-1-ylcarbonyl)-4H-pyrrolo[3,2,1-ij]-quinoline hydrochloride salt] | 79.4 nM | < 5 µmol/kg |  | 
12 | C[C@@H]1CN(C(=O)c2cn3c4c(cccc24)OC[C@H]3C2CCCCC2)C[C@H](C)N1C.Cl [Example 7, (R)-3-Cyclohexyl-2,3-dihydro-6-[(cis)-3,4,5-trimethylpiperazin-1-ylcarbonyl]pyrrolo[1,2,3-de]-1,4-benzoxazine hydrochloride salt] |  |  | 8.2 | 
13 | C[C@@H]1CN(C(=O)c2cn3c4c(cccc24)OC[C@H]3C2CCCCC2)C[C@H](C)N1CCO.Cl [Example 9, (R)-3-Cyclohexyl-2,3-dihydro-6-[(cis)-3,5-dimethyl-4-(2-hydroxyethyl)piperazin-1-ylcarbonyl]pyrrolo[1,2,3-de]-1,4-benzoxazine hydrochloride salt] |  |  | 8.2 | 
